From PMC9369794 (Molecules, 2022)

Experiments:
[1] = Study of aggregation by UV-Vis spectrophotometry; format: physicochemical; conditions: for change of UV spectrum with increasing ratio of PBS: starting from THF solutions
How it was run: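 Conjugates dissolved in THF and diluted with THF or THF-PBS mixtures (1:1, 1:3) at identical carotenoid concentration; separately, 2.5∙10−4 M DMSO stocks added to PBS to final 0.3125–5 μM carotenoid. UV-Vis spectra recorded to follow band shifts and fine-structure changes; DMSO-PBS solutions also examined by DLS.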

[2] = TEAC assay using ABTS radical; conditions: 6 min, ratio of slopes to trolox (melatonin dissolved in EtOH); for TEAC from THF: stock in THF diluted with PBS pH 7.4, 37 °C; for TEAC from DMSO: stock in DMSO diluted with PBS pH 7.4, 37 °C
[3] = Kinetic solubility in PBS pH 7.4; format: physicochemical; conditions: aqueous buffer, kinetic from dmso stock, kinetic solubility after 2 h, at 37 °C in PBS, nominal 250 μM, read-out: Kin.Sol.
Method: On a 96-well polypropylene plate (Greiner bio-one) 7.5 μL stock solutions were added to 292.5 μL PBS (pH 7.4) to make a solution with the nominal concentration of 250 μM. For each sample 3 replicates were measured. […] After that, each sample was transferred into a filter plate (MSSBLPC, Multiscreen Filter plate, Merck kGaA) and filtered (Vaccum Manifold, Merck kGaA, Darmstadt, Germany). The filtrates were transferred into UV-Star microplates (Greiner bio-one) and acetonitrile (AcN) was added to each well to avoid precipitation. The final solvent ratio was AcN:PBS 70:30. UV-Vis spectra were collected for each replicate by a Multiskan Sky UV-plate reader (Thermo Scientific, Waltham, MA, USA) in a wavelength range of 250–700 nm, with 1 nm steps. After blank substraction, the kinetic solubility of the samples was determined based on absorption at λmax using a 5-point calibration curve for each sample recorded in 70:30 AcN:PBS solvent.
Limit of detection (LOD) and limit of quantification (LOQ) were calculated with Equations (1) and (2) respectively, based on UV-Vis spectral data:(1) LOD=3.3×σ/s (2) LOQ=10×σ/s where the σ value in the equations stands for the standard deviation of the absorption base line at 700 nm (where no sample-specific absorption was observed). The s value is the slope of the calibration curve recorded for each sample based on their absorption at λmax (Table 4.)

Water dispersibility = format: physicochemical; conditions: distilled water, sonication
Method: About 2 mg of the examined substance was dispersed in 40 mL of distilled water and the suspension was sonicated for 2 min. The addition of water was continued with 10 mL portions, after each portion the mixture was sonicated for 2 min. This process was continued till a homogenous solution was observed by naked eye. Then, the solution was let to stand for an hour to inspect any precipitate formation, but no changes occurred in any of the cases.

Structure (SMILES) | type of aggregates formed ([1]; from THF:aqueous solutions) | change of UV spectrum with increasing ratio of PBS [1] | TEAC from THF [2] | solubility kinetic at 2 h [3] [µM] | Water Dispersibility (Water dispersibility) | TEAC from DMSO [2]
CC1=C(/C=C/C(C)=C/C=C/C(C)=C/C=C/C=C(C)/C=C/C=C(C)/C=C/C2=C(C)C[C@@H](OC(=O)CCC(=O)O)CC2(C)C)C(C)(C)CCC1 [Compound 8, β-Cryptoxanthin succinate] | J-type (head-to-tail) aggregates | bathochromic shift | 1.827 | 1.3 ± 0.1 | less than 0.5 mg/100 mL | –
CC1=C(/C=C/C(C)=C/C=C/C(C)=C/C=C/C=C(C)/C=C/C=C(\C)COC(=O)CCC(=O)O)C(C)(C)CCC1 [Compound 6, 8′-Apo-β-carotenol succinate] | – | did not cause much change | 1.913 | 52.3 ± 2.4 | 1.5 mg/100 mL | 1.19
CC1=C(/C=C/C(C)=C/C=C/C(C)=C/C=C/C=C(C)/C=C/C=C(C)/C=C/C2=C(C)C[C@@H](OC(=O)CCC(=O)O)CC2(C)C)C(C)(C)C[C@H](OC(=O)CCC(=O)O)C1 [Compound 7, Zeaxanthin bissuccinate] | – | did not cause much change | 2.090 | 0.6 ± 0.1 | 1.3 mg/100 mL | 0.86
